This is an account of results in PMC4631180 (British Journal of Clinical Pharmacology, 2015).

Entries after “also recorded” stand apart in the source; their conditions may differ. Where a name gives a salt, the structure may show the parent alone. Read-outs that look alike come from different tables or passages of the source. Marks after values point to notes of the source that are not given here.

Data set [1] is classed as in vivo, human. The settings on record: for Truncated AUC: 0–12 h; for Total AUC: extrapolated to infinity; for Cmax ratio (Day2) / (Day1), arithmetic mean / Cmax ratio (Day2) / (Day1), geometric mean / Cmax ratio (Day6) / (Day1), arithmetic mean / Cmax ratio (Day6) / (Day1), geometric mean / Total AUC ratio (Day2) / (Day1), arithmetic mean / Total AUC ratio (Day2) / (Day1), geometric mean / Total AUC ratio (Day6) / (Day1), arithmetic mean / Total AUC ratio (Day6) / (Day1), geometric mean / Truncated AUC ratio (Day2) / (Day1), arithmetic mean / Truncated AUC ratio (Day2) / (Day1), geometric mean / Truncated AUC ratio (Day6) / (Day1), arithmetic mean / Truncated AUC ratio (Day6) / (Day1), geometric mean: favipiravir co-administration vs control; for half-life: both, human, plasma, oral, t½.

Data set [2] is classed as in vivo, human.
Data set [3] has as its system acetaminophen glucuronide formation (pooled human hepatic S9). As to the kind of experiment: Inhibition of acetaminophen glucuronide formation in pooled human hepatic S9. It is filed as in vitro ADME. The settings on record: pooled human hepatic S9, acetaminophen 2 mM; favipiravir up to 3000 µM, T-705M1 3–300 µM.
The test system of data set [4] is acetaminophen sulfate formation (sulfation). The experiment in a line: Inhibition of acetaminophen sulfate formation in pooled human hepatic S9. It is filed as in vitro ADME. The settings on record: both, pooled human hepatic S9, probe acetaminophen (2 mM).
The mark [5] stands for this setting: Day 1, acetaminophen alone (control), mean (± SE), n = 28.
Where [6] appears, read: Day 2, + acute favipiravir, mean (± SE), n = 28.
Where [7] appears, read: Day 6, + extended favipiravir, mean (± SE), n = 28.
Setting [8] is: 650 mg, Day 1, acetaminophen alone (control), mean (± SE), n = 28.

With `CC(=O)Nc1ccc(OS(=O)(=O)O)cc1` [Acetaminophen sulfate], the Cmax in data set [1] (Day 1, acetaminophen 650 mg oral alone (control), mean (± SE), n = 28) is listed as 4.8 (± 0.4) µg ml^–1. The tmax in data set [1] (Day 1, acetaminophen 650 mg oral alone (control), n = 28) is 1.00 (± 0.33) h. In data set [1] (setting [5]), the “Truncated AUC” value is reported as 22.4 (± 1.7) µg ml^–1 h and the t½ is on record as 3.4 (± 0.1) h. Moreover, in data set [1] (setting [6]), the “Truncated AUC” value is recorded as 16.0 (± 1.3) µg ml^–1 h, the “Total AUC” value is listed as 21.2 (± 2.1) µg ml^–1 h and the t½ is recorded as 5.5 (± 0.6) h. The tmax in data set [1] (Day 2, acetaminophen 650 mg oral + acute favipiravir, n = 28) is on record as 1.51 (± 0.1) h. In data set [1] (setting [7]), the “Truncated AUC” value is 14.6 (± 1.6) µg ml^–1 h, the “Total AUC” value is on record as 20.1 (± 2.3) µg ml^–1 h and the t½ was 5.3 (± 0.4) h. In data set [1] (Day 6, acetaminophen 650 mg oral + extended favipiravir, n = 28), the tmax is 1.27 (± 0.09) h. Also, in data set [1], the “Cmax ratio (Day2) / (Day1), arithmetic mean” value was 0.52*; the “Cmax ratio (Day2) / (Day1), geometric mean” value turned out to be 0.51; the “Cmax ratio (Day6) / (Day1), arithmetic mean” value is 0.52*; the “Cmax ratio (Day6) / (Day1), geometric mean” value was 0.47. Besides, in data set [1], the “Total AUC ratio (Day2) / (Day1), arithmetic mean” value is given as 0.84*; the “Total AUC ratio (Day2) / (Day1), geometric mean” value came to 0.8; the “Total AUC ratio (Day6) / (Day1), arithmetic mean” value is recorded as 0.81; the “Total AUC ratio (Day6) / (Day1), geometric mean” value was 0.72. Also, in data set [1], the “Truncated AUC ratio (Day2) / (Day1), arithmetic mean” value was 0.71*; the “Truncated AUC ratio (Day2) / (Day1), geometric mean” value was 0.7; the “Truncated AUC ratio (Day6) / (Day1), arithmetic mean” value is given as 0.65*; the “Truncated AUC ratio (Day6) / (Day1), geometric mean” value is on record as 0.6. Further, the “Projected total urinary excretion” value in data set [2] (Day 1, acetaminophen 650 mg alone (control), mean (± SE), n = 28) is 22 (± 2) % of dose.

For orientation: IC50 means the concentration that inhibits the measured activity by half. A high value points to weaker potency. For `NC(=O)c1nc(F)c[nH]c1=O` [Favipiravir, reference compound], the “Inhibition of acetaminophen glucuronide formation” value in data set [3] is recorded as “did not inhibit”. This compound showed an IC50 at 15 min in data set [4] of 150 µM.

For the compound `NC(=O)c1nc(F)c(=O)[nH]c1O` [T‐705M1], in data set [3], the “Inhibition of acetaminophen glucuronide formation” value is “did not inhibit; also recorded: no effect”.

What is called half-life is the time needed for the level to fall by half in the phase considered. For `CC(=O)Nc1ccc(O)cc1` [Acetaminophen, reference compound], in data set [1] (setting [6]), the “Total AUC” value was 39.3 (± 3.1) µg ml^–1 h and the half-life was 3 h. Further, in data set [1] (setting [7]), the “Total AUC” value is given as 37.4 (± 2.5) µg ml^–1 h. The “Effect of favipiravir co-administration on Cmax” value in data set [1] (acute (day 2) and extended (day 6) favipiravir vs day 1) was “not significantly changed; also recorded: no significant effect”. Moreover, the half-life in data set [1] (setting [8]) was 2.8 h. In data set [1], the “Cmax ratio (Day2) / (Day1), arithmetic mean” value was found to be 1.07; the “Cmax ratio (Day2) / (Day1), geometric mean” value was found to be 1.03; the “Cmax ratio (Day6) / (Day1), arithmetic mean” value came to 1.17; the “Cmax ratio (Day6) / (Day1), geometric mean” value turned out to be 1.08. Also, in data set [1], the “Total AUC ratio (Day2) / (Day1), arithmetic mean” value was 1.20*; the “Total AUC ratio (Day2) / (Day1), geometric mean” value worked out at 1.17; the “Total AUC ratio (Day6) / (Day1), arithmetic mean” value is reported as 1.19*; the “Total AUC ratio (Day6) / (Day1), geometric mean” value is listed as 1.14. In data set [1], the “Truncated AUC ratio (Day2) / (Day1), arithmetic mean” value is 1.19*; the “Truncated AUC ratio (Day2) / (Day1), geometric mean” value is recorded as 1.17; the “Truncated AUC ratio (Day6) / (Day1), arithmetic mean” value is recorded as 1.19*; the “Truncated AUC ratio (Day6) / (Day1), geometric mean” value turned out to be 1.14. The “Dose excreted in urine as intact acetaminophen” value in data set [2] (on average) is reported as “less than 10 % of the dose”.

In the case of `CC(=O)Nc1ccc(O[C@@H]2O[C@H](C(=O)O)[C@@H](O)[C@H](O)[C@H]2O)cc1` [Acetaminophen glucuronide], in data set [1] (setting [6]), the “Total AUC” value was 99.3 (± 5.1) µg ml^–1 h and the half-life was 3.5 h. Also, the “Total AUC” value in data set [1] (setting [7]) is 109.0 (± 7.1) µg ml^–1 h. Also, the half-life in data set [1] (setting [8]) is 3.3 h. Also, in data set [1], the “Cmax ratio (Day2) / (Day1), arithmetic mean” value was 1.19*; the “Cmax ratio (Day2) / (Day1), geometric mean” value is given as 1.18; the “Cmax ratio (Day6) / (Day1), arithmetic mean” value is 1.26*; the “Cmax ratio (Day6) / (Day1), geometric mean” value amounted to 1.22. Also, in data set [1], the “Total AUC ratio (Day2) / (Day1), arithmetic mean” value is 1.23*; the “Total AUC ratio (Day2) / (Day1), geometric mean” value was 1.22; the “Total AUC ratio (Day6) / (Day1), arithmetic mean” value is on record as 1.35*; the “Total AUC ratio (Day6) / (Day1), geometric mean” value is reported as 1.32. Also, in data set [1], the “Truncated AUC ratio (Day2) / (Day1), arithmetic mean” value is reported as 1.23*; the “Truncated AUC ratio (Day2) / (Day1), geometric mean” value is given as 1.21; the “Truncated AUC ratio (Day6) / (Day1), arithmetic mean” value was 1.34*; the “Truncated AUC ratio (Day6) / (Day1), geometric mean” value is listed as 1.31.
